Assay in all cases: relative viability (nuclei count vs DMSO), 5 days (fraction); higher = more cells survive
Compound in the test “Ponatinib + Navitoclax”: Cc1ccc(C(=O)Nc2ccc(CN3CCN(C)CC3)c(C(F)(F)F)c2)cc1C#Cc1cnc2cccnn12 [Ponatinib] + CC1(C)CCC(c2ccc(Cl)cc2)=C(CN2CCN(c3ccc(C(=O)NS(=O)(=O)c4ccc(N[C@H](CCN5CCOCC5)CSc5ccccc5)c(S(=O)(=O)C(F)(F)F)c4)cc3)CC2)C1 [Navitoclax] (partner 0.5 µM)
Put shortly: (§1)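 The day after seeding in 1536-well plates, lung cancer cell lines were treated by pin tool with a single drug, or with a fixed anchor-drug dose together with five library-drug doses (not always all listed) in √10 steps. After 5 days, a combined fix-and-stain solution (final 0.05% Triton X-100, 1% formaldehyde, 1 ug/ml Hoechst) was added. Nuclei counted on 4× images gave relative viability as treated counts over vehicle counts, reported as the median of duplicate plates.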

Compound in the test “Ponatinib + Pictilisib”: Cc1ccc(C(=O)Nc2ccc(CN3CCN(C)CC3)c(C(F)(F)F)c2)cc1C#Cc1cnc2cccnn12 [Ponatinib] + CS(=O)(=O)N1CCN(Cc2cc3nc(-c4cccc5[nH]ncc45)nc(N4CCOCC4)c3s2)CC1 [Pictilisib] (partner 1 µM)
The gist of the method:
as §1

Compound in the test “Ponatinib + Olaparib”: Cc1ccc(C(=O)Nc2ccc(CN3CCN(C)CC3)c(C(F)(F)F)c2)cc1C#Cc1cnc2cccnn12 [Ponatinib] + O=C(c1cc(Cc2n[nH]c(=O)c3ccccc23)ccc1F)N1CCN(C(=O)C2CC2)CC1 [Olaparib] (partner 8 µM)
Put shortly:
as §1

Compound in the test “Pazopanib + Dasatinib”: Cc1ccc(Nc2nccc(N(C)c3ccc4c(C)n(C)nc4c3)n2)cc1S(N)(=O)=O [Pazopanib] + Cc1nc(Nc2ncc(C(=O)Nc3c(C)cccc3Cl)s2)cc(N2CCN(CCO)CC2)n1 [Dasatinib] (partner 0.075 µM)
The gist of the method: as §1

On to UMC-11, for which the relative viability with Ponatinib + Navitoclax (first compound 0.002 µM) worked out at 0.311; in the test with Ponatinib + Navitoclax (first compound 0.006325 µM), 0.354; with Ponatinib + Navitoclax (first compound 0.06325 µM), 0.38; in the test with Ponatinib + Navitoclax (first compound 0.2 µM), 0.345; with Ponatinib + Pictilisib (first compound 0.002 µM), 0.809; in the test with Ponatinib + Pictilisib (first compound 0.006325 µM), 0.933. Also, the relative viability worked out at 0.766 with Ponatinib + Pictilisib (first compound 0.06325 µM); 0.831 in the test with Ponatinib + Pictilisib (first compound 0.2 µM); 0.405 with Ponatinib + Olaparib (first compound 0.002 µM); 1.01 with Ponatinib + Olaparib (first compound 0.006325 µM); 0.338 with Ponatinib + Olaparib (first compound 0.06325 µM); 0.366 with Ponatinib + Olaparib (first compound 0.2 µM). In addition, the relative viability in the test with Pazopanib + Dasatinib (first compound 0.01 µM) came out at 0.455; with Pazopanib + Dasatinib (first compound 0.03162 µM), 0.459; with Pazopanib + Dasatinib (first compound 0.1 µM), 0.568; in the test with Pazopanib + Dasatinib (first compound 0.3162 µM) it was 0.467; in the test with Pazopanib + Dasatinib (first compound 1 µM), 0.432.

The values are drawn from the supplement of paper PMC10307832.
